Measurements reported in PMC4394464, “Identification and Pharmacokinetics of Multiple Potential Bioactive Constituents after Oral Administration of Radix Astragali on Cyclophosphamide-Induced Immunosuppression in Balb/c Mice” (International Journal of Molecular Sciences, 2015).
Like-named read-outs stand apart in the source and are kept apart here.

Assays:
[1] = Pharmacokinetics of five main constituents in immunosuppressive mice plasma after oral administration of RA (HPLC-MS/MS); type: in vivo, Balb/c mice
Description: The maximum plasma concentration (Cmax) and the time of maximum plasma concentration (tmax) were obtained from the observed data (Table 3). The plasma concentration-time profiles for calycosin-7-O-glucoside, ononin, calycosin, formononetin and astragaloside IV are shown in Figure 4.
To quantify calycosin-7-O-glucoside, ononin, calycosin, formononetin and astragaloside IV in mice, a 10-μL IS solution was added into 50 μL of plasma and mixed for 30 s. Then, 1 mL ethyl acetate was added to the tube and vortexed for 3 min. […] Ten microliters of the supernatant were injected into the HPLC-MS/MS system.
The quantification was performed by an LC-MS/MS system, which consisted of an Agilent 1200 HPLC series system and an Agilent 6410 triple quadrupole mass spectrometer (Agilent Technol., Santa Clara, CA, USA) equipped with an electrospray ionization source. Samples were separated by a rapid resolution HT C18 column (2.1 mm × 50 mm, 1.8 μm, Agilent Technol.) at 30 °C. The mobile phase consisted of 0.1 formic acid both in methanol (A) and water (B) using a gradient elution program of 25%–50% A (0–5 min) and 50%–90% (5–10 min). The flow rate was 0.2 mL/min, and the injection volume was 10 μL. Detection was performed in the positive ion mode using multiple reaction monitoring (MRM) of the m/z 447.1/285.0 for calycosin-7-O-glucoside, m/z 431.1/269.0 for ononin, m/z 285.0/137.0 for calycosin, m/z 269.0/213.0 for formononetin, m/z 807.4/627.3 for astragaloside IV and m/z 271.1/151.0 for naringenin.

[2] = Profiling of absorbed constituents and metabolites in mice plasma after oral administration of RA (UFLC-DAD-Q-TOF-MS/MS); conditions: oral RA extract 6 g/kg BW; cyclophosphamide-induced immunosuppressed Balb/c mice; plasma sampled 0.25-36 h; '-' = not detected
Description: The peaks that appeared at the same position in the total ion chromatograms of both the dosed mice bio-samples and the RA extract, but not in the chromatograms of the controlled mice bio-samples, were regarded as absorbed constituents [22].
Following randomization into study groups, mice (6/group/male) received intraperitoneal injection once daily of cyclophosphamide (i.p. 80 mg/kg BW) for 6 days. Additionally, the control group was injected intraperitoneally with sterile physiological saline. […] Plasma was harvested by centrifugation at 3000× g for 10 min and then kept frozen at −70 °C until analysis.
After being vortexed for 1 min, the sample was centrifuged at 13,000× g at 4 °C for 30 min. The supernate was transferred into a fresh tube and evaporated with nitrogen. Then, the residue was dissolved in a 60-μL mobile phase with vortex mixing for 3 min and centrifuged at 13,000× g for 30 min. Finally, 10 μL of the supernatant were injected into the UFLC/DAD/Q-TOF-MS/MS system.
The multiple constituents in RA and the absorbed compounds in mice plasma were identified by the ultra-fast liquid chromatography/diode-array detector/quadrupole time-of-flight tandem mass spectrometry (UFLC/DAD/Q-TOF-MS/MS) method.

[3] = male, Balb/c, mouse, in vivo, po, 6 g/kg

Source: Dosed Plasma (time points at which the compound was detected) [2] [h] | double-peak phenomenon, time of second peak ([1]; after oral administration of RA, immunosuppressive Balb/c mice plasma) [h] | AUC(0-t) ([1]; male, mouse, oral RA extract 6 g/kg BW, immunosuppressive Balb/c mice plasma, 0-36 h, read-out: AUC(0–t)) [ng·h/mL] | AUC(0-inf) ([1]; male, mouse, oral RA extract 6 g/kg BW, immunosuppressive Balb/c mice plasma, read-out: AUC(0–∞)) [ng·h/mL] | Cmax ([1]; male, mouse, oral RA extract 6 g/kg BW, immunosuppressive Balb/c mice plasma, read-out: Cmax) [ng/mL] | half-life ([1]; male, mouse, oral RA extract 6 g/kg BW, immunosuppressive Balb/c mice plasma, read-out: t1/2z (converted)) [h] | Tmax ([1]; male, mouse, oral RA extract 6 g/kg BW, immunosuppressive Balb/c mice plasma, read-out: tmax) [h] | double-peak phenomenon, time of second peak ([1]; male, Balb/c, mouse, in vivo, po) [h] | AUC(0-inf) [1, 3] [ng·h/mL] | AUC(0-t) [1, 3] [ng·h/mL] | Cmax [1, 3] [ng/mL] | Tmax [1, 3] [h] | half-life [1, 3] [h] | SMILES | AUC(0-t) ([1]; male, mouse, in vivo, 6 g/kg BW, oral RA, immunosuppressive Balb/c mice plasma, read-out: AUC0–t) [ng·h/mL] | Cmax ([1]; male, mouse, in vivo, 6 g/kg BW, oral RA, immunosuppressive Balb/c mice plasma, read-out: Cmax) [ng/mL] | AUC(0-t) ([1]; male, mouse, in vivo, oral RA extract 6 g/kg BW, immunosuppressive Balb/c mice plasma, 0-36 h, read-out: AUC(0–t)) [ng·h/mL] | AUC(0-inf) ([1]; male, mouse, in vivo, oral RA extract 6 g/kg BW, immunosuppressive Balb/c mice plasma, read-out: AUC(0–∞)) [ng·h/mL] | Cmax ([1]; male, mouse, in vivo, oral RA extract 6 g/kg BW, immunosuppressive Balb/c mice plasma, read-out: Cmax) [ng/mL] | half-life ([1]; male, mouse, in vivo, oral RA extract 6 g/kg BW, immunosuppressive Balb/c mice plasma, read-out: t1/2z (converted)) [h] | Tmax ([1]; male, mouse, in vivo, oral RA extract 6 g/kg BW, immunosuppressive Balb/c mice plasma, read-out: tmax) [h]
0.25 to 24 | 6 | 136 ± 41.4 | 155 ± 37.7 | 33 | 2.21 ± 0.92 | 1.5 |  |  |  |  |  |  | COc1ccc(-c2coc3cc(O)ccc3c2=O)cc1O [Peak 37, Calycosin] |  |  |  |  |  |  | 
0.25 to 24 |  |  |  |  |  |  | 6 | 256 ± 45.7 | 233 ± 47.8 | 47.9 | 2 | 3.99 ± 1.03 | COc1ccc(-c2coc3cc(O)ccc3c2=O)cc1 [Peak 39, Formononetin] |  |  |  |  |  |  | 

SMILES | Source: Dosed Plasma (time points at which the compound was detected) [2] [h] | double-peak phenomenon, time of second peak ([1]; after oral administration of RA, immunosuppressive Balb/c mice plasma) [h] | AUC(0-t) ([1]; male, mouse, oral RA extract 6 g/kg BW, immunosuppressive Balb/c mice plasma, 0-36 h, read-out: AUC(0–t)) [ng·h/mL] | AUC(0-inf) ([1]; male, mouse, oral RA extract 6 g/kg BW, immunosuppressive Balb/c mice plasma, read-out: AUC(0–∞)) [ng·h/mL] | Cmax ([1]; male, mouse, oral RA extract 6 g/kg BW, immunosuppressive Balb/c mice plasma, read-out: Cmax) [ng/mL] | half-life ([1]; male, mouse, oral RA extract 6 g/kg BW, immunosuppressive Balb/c mice plasma, read-out: t1/2z (converted)) [h] | Tmax ([1]; male, mouse, oral RA extract 6 g/kg BW, immunosuppressive Balb/c mice plasma, read-out: tmax) [h] | double-peak phenomenon, time of second peak ([1]; male, Balb/c, mouse, in vivo, po) [h] | AUC(0-inf) [1, 3] [ng·h/mL] | AUC(0-t) [1, 3] [ng·h/mL] | Cmax [1, 3] [ng/mL] | Tmax [1, 3] [h] | half-life [1, 3] [h] | AUC(0-t) ([1]; male, mouse, in vivo, 6 g/kg BW, oral RA, immunosuppressive Balb/c mice plasma, read-out: AUC0–t) [ng·h/mL] | Cmax ([1]; male, mouse, in vivo, 6 g/kg BW, oral RA, immunosuppressive Balb/c mice plasma, read-out: Cmax) [ng/mL] | AUC(0-t) ([1]; male, mouse, in vivo, oral RA extract 6 g/kg BW, immunosuppressive Balb/c mice plasma, 0-36 h, read-out: AUC(0–t)) [ng·h/mL] | AUC(0-inf) ([1]; male, mouse, in vivo, oral RA extract 6 g/kg BW, immunosuppressive Balb/c mice plasma, read-out: AUC(0–∞)) [ng·h/mL] | Cmax ([1]; male, mouse, in vivo, oral RA extract 6 g/kg BW, immunosuppressive Balb/c mice plasma, read-out: Cmax) [ng/mL] | half-life ([1]; male, mouse, in vivo, oral RA extract 6 g/kg BW, immunosuppressive Balb/c mice plasma, read-out: t1/2z (converted)) [h] | Tmax ([1]; male, mouse, in vivo, oral RA extract 6 g/kg BW, immunosuppressive Balb/c mice plasma, read-out: tmax) [h]
CC(C)(O)[C@@H]1CC[C@](C)(C2[C@@H](O)C[C@@]3(C)[C@@H]4C[C@H](O[C@@H]5O[C@H](CO)[C@@H](O)[C@H](O)[C@H]5O)C5C(C)(C)[C@@H](O[C@@H]6OC[C@@H](O)[C@H](O)[C@H]6O)CC[C@@]56C[C@@]46CC[C@]23C)O1 (single isomer, unassigned) [Peak 45, Astragaloside IV] | 0.25 to 24 |  |  |  |  |  |  |  |  |  |  |  |  | 695 ± 179 | 129 | 695 ± 179 | 722 ± 197 | 129 | 3.48 ± 1.15 | 1.5
